Our source for the GI, GI50 and Activity values is ChEMBL document CHEMBL1255529, “Design, synthesis, and anticancer activities of novel perfluoroalkyltriazole-appended 2'-deoxyuridines” (Bioorg Med Chem Lett, 2010).

One may read the GI50 as the concentration giving 50% growth inhibition. Higher therefore signals lower sensitivity of the cells.

The subject of one data set is ACHN. The data set can be described thus: Anticancer activity against human ACHN cells by SRB assay. The conditions noted are these: for GI50: Homo sapiens, ACHN. It is filed as functional. On the technique in general: In SRB staining, fixed cells bind dye roughly in proportion to their protein.
Another data set concerns PC-3. The data set can be described thus: Anticancer activity against human PC3 cells by SRB assay. It is filed as functional. The conditions noted are these: for GI50: Homo sapiens, PC-3.
In a further data set the test system is MDA-MB-231. The data set can be described thus: Anticancer activity against human MDA-MB-231 cells by SRB assay. It is filed as functional. The conditions noted are these: for GI50: Homo sapiens, MDA-MB-231.
The nature of data set [1]: Antiproliferative activity against human CCD-33Lu.

On to `O=c1[nH]c(=O)n([C@H]2C[C@H](O)[C@@H](CO)O2)cc1-c1cn(CCC(F)(F)C(F)(F)C(F)(F)C(F)(F)F)nn1`, for which the GI turned out to be 116 µM in the data set with ACHN, 97.8 µM in the data set on PC-3 and 109.7 µM with MDA-MB-231.
On to `CC(=O)OC[C@H]1O[C@@H](n2cc(-c3cn(CCC(F)(F)C(F)(F)C(F)(F)C(F)(F)C(F)(F)C(F)(F)F)nn3)c(=O)[nH]c2=O)C[C@@H]1OC(C)=O`, for which the GI with ACHN amounted to 113.8 µM; in the data set with PC-3 it was 89.4 µM; with MDA-MB-231, 99.4 µM.
For `O=c1[nH]c(=O)n([C@H]2C[C@H](O)[C@@H](CO)O2)cc1-c1cn(CCC(F)(F)C(F)(F)C(F)(F)C(F)(F)C(F)(F)C(F)(F)C(F)(F)C(F)(F)C(F)(F)C(F)(F)F)nn1`, the figures for the GI with ACHN, in the data set on PC-3 and in the data set on MDA-MB-231 were 90.8 µM, 89.4 µM and 93.7 µM, respectively.
As for `O=c1[nH]c(=O)n([C@H]2C[C@H](O)[C@@H](CO)O2)cc1F` [FLOXURIDINE], the GI was determined as 25.8 µM in the data set on ACHN and 40.7 µM with PC-3. Besides, the concentration for 50% growth inhibition (GI50) in the data set with ACHN was found to be 2100 nM; in the data set with PC-3, 4970 nM; in the data set with MDA-MB-231, 160 nM.
`COc1cccc2c1C(=O)c1c(O)c3c(c(O)c1C2=O)C[C@@](O)(C(=O)CO)C[C@@H]3O[C@H]1C[C@H](N)[C@H](O)[C@H](C)O1` [DOXORUBICIN]: the values for the GI in the data set on ACHN, in the data set with PC-3 and in the data set with MDA-MB-231 were 12.3 µM, 28.5 µM and 16.5 µM, respectively. In addition, the results for the GI50 in the data set on ACHN, with PC-3 and with MDA-MB-231 were 220 nM, 280 nM and 180 nM, respectively.
With `CC(=O)OC[C@H]1O[C@@H](n2cc(-c3cn(CCC(F)(F)C(F)(F)C(F)(F)C(F)(F)C(F)(F)C(F)(F)C(F)(F)C(F)(F)F)nn3)c(=O)[nH]c2=O)C[C@@H]1OC(C)=O`, the GI in the data set with ACHN is 110.8 µM; with PC-3 it was 77.9 µM; in the data set with MDA-MB-231, 99.1 µM.
Take `O=c1[nH]c(=O)n([C@H]2C[C@H](O)[C@@H](CO)O2)cc1-c1cn(CCC(F)(F)C(F)(F)C(F)(F)C(F)(F)C(F)(F)C(F)(F)F)nn1`: the values for the GI with ACHN, with PC-3 and in the data set on MDA-MB-231 were 99.3 µM, 114.5 µM and 106.5 µM, respectively.
As for `O=c1[nH]c(=O)n([C@H]2C[C@H](O)[C@@H](CO)O2)cc1-c1cn(CCC(F)(F)C(F)(F)F)nn1`, the GI with ACHN turned out to be 96.1 µM; in the data set with PC-3, 96.4 µM; with MDA-MB-231, 98.7 µM.
In the case of `O=c1[nH]c(=O)n([C@H]2C[C@H](O)[C@@H](CO)O2)cc1-c1cn(CCC(F)(F)C(F)(F)C(F)(F)C(F)(F)C(F)(F)C(F)(F)C(F)(F)C(F)(F)F)nn1`, the GI came out at 14.2 µM in the data set with ACHN, 16.7 µM with PC-3 and 15.9 µM with MDA-MB-231. In addition, the concentration for 50% growth inhibition (GI50) was 8240 nM in the data set on ACHN, 7750 nM with PC-3 and 8670 nM in the data set on MDA-MB-231. Moreover, in data set [1], the Activity entry is listed as “Non-toxic”.
